Laboratory results taken from publication PMC8095115, “Dual regulation of TRPV1 channels by phosphatidylinositol via functionally distinct binding sites” (The Journal of Biological Chemistry, 2021).

Key:
TRPV1 [1] = target: TRPV1 (Rattus norvegicus, UniProt O35433); assay: excised inside-out patch clamp, Xenopus oocytes; partial inhibition with PtdIns([…])P2, partial activation without it; type: cell-based; details: read-out: % inhibition at 50 μM
TRPV1 [2] = target: TRPV1 (Rattus norvegicus, UniProt O35433, D509A); assay: excised inside-out patch clamp, Xenopus oocytes; type: cell-based
Sequence of TRPV1 (Rattus norvegicus, UniProt O35433, D509A) (O35433 whole entry D509A): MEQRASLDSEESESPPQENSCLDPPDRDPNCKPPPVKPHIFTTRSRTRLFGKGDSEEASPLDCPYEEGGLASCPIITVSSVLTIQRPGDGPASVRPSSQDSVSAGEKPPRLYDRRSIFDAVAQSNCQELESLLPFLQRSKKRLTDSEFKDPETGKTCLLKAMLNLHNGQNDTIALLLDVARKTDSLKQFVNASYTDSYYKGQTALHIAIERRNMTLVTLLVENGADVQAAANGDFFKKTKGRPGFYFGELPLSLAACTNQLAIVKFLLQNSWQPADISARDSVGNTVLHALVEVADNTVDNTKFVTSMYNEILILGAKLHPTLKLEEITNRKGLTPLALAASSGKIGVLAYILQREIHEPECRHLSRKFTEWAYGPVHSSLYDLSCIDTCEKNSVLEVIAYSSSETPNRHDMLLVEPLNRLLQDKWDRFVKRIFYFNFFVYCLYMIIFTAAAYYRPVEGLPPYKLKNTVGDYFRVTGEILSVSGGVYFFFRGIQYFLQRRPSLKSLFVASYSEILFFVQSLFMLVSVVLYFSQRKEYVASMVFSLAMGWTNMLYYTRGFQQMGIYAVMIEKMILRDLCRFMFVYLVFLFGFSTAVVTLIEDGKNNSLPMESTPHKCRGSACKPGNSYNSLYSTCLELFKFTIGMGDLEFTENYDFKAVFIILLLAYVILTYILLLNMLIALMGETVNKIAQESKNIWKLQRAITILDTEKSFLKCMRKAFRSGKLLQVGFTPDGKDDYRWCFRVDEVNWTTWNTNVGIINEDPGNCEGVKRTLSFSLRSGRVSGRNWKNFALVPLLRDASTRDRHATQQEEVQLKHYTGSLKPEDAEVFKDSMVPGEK

Sequence of TRPV1 (Rattus norvegicus, UniProt O35433) (O35433 whole entry): as the sequence (O35433 whole entry D509A) above, with A509D counted along it

inhibition at 50 µM (TRPV1 [1]): ~50%
Compound: CCCCCCCC(=O)OC[C@H](COP(=O)(O)O[C@@H]1[C@H](O)[C@H](O)[C@@H](O)[C@H](O)[C@H]1O)OC(=O)CCCCCCC [diC8 PtdIns]
excised inside-out patch clamp, Xenopus oocytes (TRPV1 [2]): The D509A mutant on the other hand was clearly inhibited by PtdIns
